Patent US7410765B2, “System for protease mediated protein expression” (The Regents of the University of California, priority 2004, dated 2008)

Tested on: caspase-3
Assay: Caspase-3-dependent DsRed fluorescence in live transgenic zebrafish embryos injected with the UbG-DEVDsRx reporter construct
Type: in vivo
Experimental: As discussed in detail below, the invention was tested by making a construct where the degradation signal is a non-removable ubiquitin moiety (G76V zebrafish ubiquitin mutant) fused to the red fluorescent protein DsRed Express by a linker containing a caspase-3 cleavage site (amino acid sequence: DEVD; SEQ ID NO: 1). […] The DNA construct was microinjected in one-cell-stage zebrafish embryos to generate transgenic fish where apoptotic cells express the red fluorescent marker.
Specific labelling of apoptotic cells by UbG-DEVDsRx depends on a functional proteasomal degradation pathway because failure to degrade the UbG76V-tagged chimera would allow fluorescence to develop, even in the absence of caspase-3 activity.
Morpholino-modified oligonucleotides were injected in the yolk of one-cell-stage embryos. DNA constructs were linearized and injected in the cytoplasm of one-cell-stage embryos. For each experiment, 200-250 transgenics were generated. Upon reaching the desired age, 20-30 embryos with similar transgene expression levels and low-mosaicism were selected for TUNEL labelling, confocal microscopy, in vivo observations and cell counts.
Fixed and live embryos were embedded in 1.2% low-melt agarose on a glass slide and immersed in a drop of water to retain humidity.

expression of red fluorescence in embryo injected with the test construct (embryo incubated in the presence of Z-DEVD-FMK, 75 μM, FIG. 1e): does not express any fluorescence
fluorescence (UbG-DEVDsRx labelling) in living transgenic embryos (embryos exposed to the caspase-3 inhibitor, concentration not given): fluorescence is absent
Compound: COC(=O)CC[C@H](NC(=O)[C@H](CC(=O)OC)NC(=O)OCc1ccccc1)C(=O)N[C@H](C(=O)N[C@@H](CC(=O)OC)C(=O)CF)C(C)C [Z-DEVD-FMK]
